# According to patent US9133262B2, “Somatostatin antagonists” (Ipsen Pharma S.A.S., priority 1996, dated 2015):
# Positions of bridges follow the written chain, without caps; N, C: chain ends. Non-standard residues stand in square brackets, D forms with d. Residues, ends and D or L forms follow the SMILES beside them. Phe(4-NO2) = N[C@@H](Cc1ccc([N+](=O)[O-])cc1)C(=O)O; Bip = N[C@@H](Cc1ccc(-c2ccccc2)cc1)C(=O)O; Tyr(3-I) = N[C@@H](Cc1ccc(O)c(I)c1)C(=O)O; dBip = N[C@H](Cc1ccc(-c2ccccc2)cc1)C(=O)O; dDip = N[C@@H](C(=O)O)C(c1ccccc1)c1ccccc1; Phe(4-CN) = N#Cc1ccc(C[C@H](N)C(=O)O)cc1; Phe(4-Cl) = N[C@@H](Cc1ccc(Cl)cc1)C(=O)O; Dip = N[C@H](C(=O)O)C(c1ccccc1)c1ccccc1; Phe(3-F) = N[C@@H](Cc1cccc(F)c1)C(=O)O; Phe(4-F) = N[C@@H](Cc1ccc(F)cc1)C(=O)O; 2Nal = N[C@@H](Cc1ccc2ccccc2c1)C(=O)O; Phe(2-F) = N[C@@H](Cc1ccccc1F)C(=O)O; Igl = N[C@H](C(=O)O)C1Cc2ccccc2C1; 3Pal = N[C@@H](Cc1cccnc1)C(=O)O
# Tested on: rat pituitary cells
# Assay type: cell-based
# Settings: 3 h
# From the text: Bioassay on the In Vitro Release of Growth Hormone
# (a) Rat Pituitary Cell Dispersion
# Pituitaries from adult Charles River CD male rats (Wilmington, Mass.) housed under controlled conditions were dispersed and cultured using aseptic technique by modification of previously described methods (Hoefer, M. T., et al., Mol. Cell. Endocrinol. 35:229 (1984); Ben-Jonathan, N., et al., Methods Enzymol. 103:249 (1983); and Heiman, M. L., et al., Endocrinology 116:410 (1985)). Pituitaries were removed from sacrificed rats, sectioned, and then placed into a siliconized, liquid scintillation vial containing 2 ml 0.2% trypsin (Worthington Biochemicals, Freehold, N.J.) in sterile-filtered Krebs-Ringer bicarbonate buffer supplemented with 1% bovine serum albumin, 14 mM glucose, modified Eagle medium (MEM) vitamin solution, and MEM amino acids (Gibco Laboratories, Grand Island, N.Y.) (KRBGA). All glassware was siliconized as described by Sayers, et al., Endocrinology 88:1063 (1971). The fragments were incubated in a water bath for 35 min at 37° C. with agitation. The vial contents then were poured into a scintillation vial containing 2 ml 0.1% DNase (Sigma Chemical Co., St. Louis, Mo.) in KRBGA and incubated for 2 min at 37° C. with agitation. After incubation, the tissue was decanted into a 15 ml centrifuge tube and allowed to settle. Medium was discarded, and pituitary sections were washed 3 times with 1 ml fresh-KRBGA. The cells were then dispersed in 2 ml 0.05% LBI (lima bean trypsin inhibitor, Worthington Biochemicals) by gently drawing the fragments into and expelling them out of a siliconized, fire polished Pasteur pipette. Dispersed cells were then filtered through a 630 μm diameter Nylon mesh (Tetko, Elmsford, N.Y.) into a fresh 15 ml centrifuge tube. An additional 2 ml of 0.05% LBI solution was used to rinse the first tube and was transferred to the second tube with filtering.
# The dispersed cells were then further diluted with approximately 15 ml sterile-filtered Dulbecco's modified Eagle medium (GIBCO), which was supplemented with 2.5% fetal calf serum (GIBCO), 3% horse serum (GIBCO), 10% fresh rat serum (stored on ice for no longer than 1 hr) from the pituitary donors, 1% MEM non-essential amino acids (GIBCO), and gentamycin (10 ng/ml; Sigma) and nystatin (10,000 U/ml; GIBCO). The cells were poured into a 50 ml round-bottomed glass extraction flask with a large diameter opening and then randomly plated at a density of approximately 200,000 cells per well (Co-star cluster 24; Rochester Scientific Co., Rochester, N.Y.). The plated cells were maintained in the above Dulbecco's medium in a humidified atmosphere of 95% air and 5% CO2 at 37° C. for 4-5 days.
# (c) Experimental Incubation and IC50 Determination
# In preparation for a hormone challenge, the cells were washed 3 times with medium 199 (GIBCO) to remove old medium and floating cells. Each treatment well contained a total volume of 1 ml medium 199 containing 1% BSA (fraction V; Sigma) with treatments as described below. Each antagonist candidate was tested using a single 24-well cell culture plate. Each treatment was performed in triplicate. Each plate contained 8 treatment groups: one 1 nM growth hormone releasing factor (GRF) (1-29)NH2-stimulated control group; one 1 nM somatostatin-inhibited control group in the presence of 1 nM GRF(1-29)NH2; and 6 doses of a given antagonist in the presence of both 1 nM SRIF and 1 nM GRF per plate. After 3 hrs at 37° C. in a air/carbon dioxide atmosphere (95/5%), the medium was removed and stored at −20° C. until radioimmunoassayed for growth hormone content. IC50's of each antagonist versus 1 nM SRIF were calculated using a computer program (SigmaPlot, Jandel Scientific, San Rafael, Calif.) with the maximum response constrained to the value of the 1 nM GRF(1-29)NH2-stimulated control.
row,SMILES,IC50
1,"NCCCC[C@@H]1NC(=O)[C@@H](Cc2c[nH]c3ccccc23)NC(=O)[C@H](Cc2cccnc2)NC(=O)[C@H](NC(=O)[C@@H](N)Cc2ccc3ccccc3c2)CSSC[C@@H](C(=O)N[C@@H](Cc2ccc3ccccc3c2)C(N)=O)NC(=O)CNC1=O [Analog No. 33, H2-β-Nal-D-Cys-Pal-D-Trp-Lys-Gly-Cys-β-Nal-NH2] (H-[2Nal][dC][3Pal][dW]KGC[2Nal]-NH2; disulfide 2-7)",1500 nM
2,"C[C@@H]1NC(=O)[C@H](CCCCN)NC(=O)[C@@H](Cc2c[nH]c3ccccc23)NC(=O)[C@H](Cc2cccnc2)NC(=O)[C@H](NC(=O)[C@@H](N)Cc2ccc3ccccc3c2)CSSC[C@@H](C(=O)N[C@@H](Cc2ccc3ccccc3c2)C(N)=O)NC1=O [Analog No. 34, H2-β-Nal-D-Cys-Pal-D-Trp-Lys-Ala-Cys-β-Nal-NH2] (H-[2Nal][dC][3Pal][dW]KAC[2Nal]-NH2; disulfide 2-7)",420 nM
3,"CC(C)C[C@@H]1NC(=O)[C@H](CCCCN)NC(=O)[C@@H](Cc2c[nH]c3ccccc23)NC(=O)[C@H](Cc2cccnc2)NC(=O)[C@H](NC(=O)[C@@H](N)Cc2ccc3ccccc3c2)CSSC[C@@H](C(=O)N[C@@H](Cc2ccc3ccccc3c2)C(N)=O)NC1=O [Analog No. 35, H2-β-Nal-D-Cys-Pal-D-Trp-Lys-Leu-Cys-β-Nal-NH2] (H-[2Nal][dC][3Pal][dW]KLC[2Nal]-NH2; disulfide 2-7)",52 nM
4,"CC[C@H](C)[C@@H]1NC(=O)[C@H](CCCCN)NC(=O)[C@@H](Cc2c[nH]c3ccccc23)NC(=O)[C@H](Cc2ccc(O)cc2)NC(=O)[C@H](NC(=O)[C@@H](N)Cc2ccc(-c3ccccc3)cc2)CSSC[C@@H](C(=O)N[C@@H](Cc2ccc(-c3ccccc3)cc2)C(N)=O)NC1=O [Analog No. 36, H2-Bip-D-Cys-Tyr-D-Trp-Lys-Ile-Cys-Bip-NH2] (H-[Bip][dC]Y[dW]KIC[Bip]-NH2; disulfide 2-7)",1030 nM
5,"CC(C)[C@@H]1NC(=O)[C@H](CCCCN)NC(=O)[C@@H](Cc2c[nH]c3ccccc23)NC(=O)[C@H](Cc2ccc(O)cc2)NC(=O)[C@H](NC(=O)[C@H](N)Cc2ccc(-c3ccccc3)cc2)CSSC[C@@H](C(=O)N[C@@H](Cc2ccc3ccccc3c2)C(N)=O)NC1=O [Analog No. 37, H2-D-Bip-D-Cys-Tyr-D-Trp-Lys-Val-Cys-β-Nal-NH2] (H-[dBip][dC]Y[dW]KVC[2Nal]-NH2; disulfide 2-7)",780 nM
6,"CC(C)[C@@H]1NC(=O)[C@H](CCCCN)NC(=O)[C@@H](Cc2c[nH]c3ccccc23)NC(=O)[C@H](Cc2c[nH]cn2)NC(=O)[C@H](NC(=O)[C@@H](N)Cc2ccc(F)cc2)CSSC[C@@H](C(=O)N[C@@H](Cc2ccc(F)cc2)C(N)=O)NC1=O [Analog No. 38, H2-p-F-Phe-D-Cys-His-D-Trp-Lys-Val-Cys-p-F-Phe-NH2] (H-[Phe(4-F)][dC]H[dW]KVC[Phe(4-F)]-NH2; disulfide 2-7)",110 nM
7,"CC(C)[C@@H]1NC(=O)[C@H](CCCCN)NC(=O)[C@@H](Cc2c[nH]c3ccccc23)NC(=O)[C@H](Cc2cccnc2)NC(=O)[C@H](NC(=O)[C@@H](N)Cc2ccc([N+](=O)[O-])cc2)CSSC[C@@H](C(=O)N[C@@H](Cc2ccc(O)cc2)C(N)=O)NC1=O [Analog No. 39, H2-Npa-D-Cys-Pal-D-Trp-Lys-Val-Cys-Tyr-NH2] (H-[Phe(4-NO2)][dC][3Pal][dW]KVCY-NH2; disulfide 2-7)",34 nM
8,"CC(C)[C@@H]1NC(=O)[C@H](CCCCN)NC(=O)[C@@H](Cc2c[nH]c3ccccc23)NC(=O)[C@H](Cc2c[nH]cn2)NC(=O)[C@H](NC(=O)[C@@H](N)Cc2cccc(F)c2)CSSC[C@@H](C(=O)N[C@@H](Cc2cccc(F)c2)C(N)=O)NC1=O [Analog No. 40, H2-m-F-Phe-D-Cys-His-D-Trp-Lys-Val-Cys-m-F-Phe-NH2] (H-[Phe(3-F)][dC]H[dW]KVC[Phe(3-F)]-NH2; disulfide 2-7)",110 nM
9,"CC(C)[C@@H]1NC(=O)[C@H](CCCCN)NC(=O)[C@@H](Cc2c[nH]c3ccccc23)NC(=O)[C@H](Cc2c[nH]cn2)NC(=O)[C@H](NC(=O)[C@@H](N)Cc2ccccc2F)CSSC[C@@H](C(=O)N[C@@H](Cc2ccccc2F)C(N)=O)NC1=O [Analog No. 41, H2-o-F-Phe-D-Cys-His-D-Trp-Lys-Val-Cys-o-F-Phe-NH2] (H-[Phe(2-F)][dC]H[dW]KVC[Phe(2-F)]-NH2; disulfide 2-7)",210 nM
10,"CC(C)[C@@H]1NC(=O)[C@H](CCCCN)NC(=O)[C@@H](Cc2c[nH]c3ccccc23)NC(=O)[C@H](Cc2cccnc2)NC(=O)[C@H](NC(=O)[C@@H](N)Cc2ccc3ccccc3c2)CSSC[C@@H](C(=O)N[C@H](C(N)=O)C(c2ccccc2)c2ccccc2)NC1=O [Analog No. 42, H2-β-Nal-D-Cys-Pal-D-Trp-Lys-Val-Cys-Dip-NH2] (H-[2Nal][dC][3Pal][dW]KVC[Dip]-NH2; disulfide 2-7)",44 nM
11,"CC(C)[C@@H]1NC(=O)[C@H](CCCCN)NC(=O)[C@@H](Cc2c[nH]c3ccccc23)NC(=O)[C@H](Cc2cccnc2)NC(=O)[C@H](NC(=O)[C@@H](N)Cc2ccc(Cl)cc2)CSSC[C@@H](C(=O)N[C@@H](Cc2ccc(Cl)cc2)C(N)=O)NC1=O [Analog No. 43, H2-Cpa-D-Cys-Pal-D-Trp-Lys-Val-Cys-Cpa-NH2] (H-[Phe(4-Cl)][dC][3Pal][dW]KVC[Phe(4-Cl)]-NH2; disulfide 2-7)",0.82 nM
12,"CC(C)[C@@H]1NC(=O)[C@H](CCCCN)NC(=O)[C@@H](Cc2c[nH]c3ccccc23)NC(=O)[C@H](Cc2cccnc2)NC(=O)[C@H](NC(=O)[C@@H](N)C2Cc3ccccc3C2)CSSC[C@@H](C(=O)N[C@H](C(N)=O)C2Cc3ccccc3C2)NC1=O [Analog No. 44, H2-Igl-D-Cys-Pal-D-Trp-Lys-Val-Cys-Igl-NH2] (H-[Igl][dC][3Pal][dW]KVC[Igl]-NH2; disulfide 2-7)",21 nM
13,"CC(C)[C@@H]1NC(=O)[C@H](CCCCN)NC(=O)[C@@H](Cc2c[nH]c3ccccc23)NC(=O)[C@H](Cc2cccnc2)NC(=O)[C@H](NC(=O)[C@@H](N)Cc2ccc3ccccc3c2)CSSC[C@@H](C(=O)N[C@@H](C(N)=O)C(c2ccccc2)c2ccccc2)NC1=O [Analog No. 45, H2-β-Nal-D-Cys-Pal-D-Trp-Lys-Val-Cys-D-Dip-NH2] (H-[2Nal][dC][3Pal][dW]KVC[dDip]-NH2; disulfide 2-7)",130 nM
14,"CC(C)[C@@H]1NC(=O)[C@H](CCCCN)NC(=O)[C@@H](Cc2c[nH]c3ccccc23)NC(=O)[C@H](Cc2ccc(O)c(I)c2)NC(=O)[C@H](NC(=O)[C@@H](N)Cc2ccc3ccccc3c2)CSSC[C@@H](C(=O)N[C@@H](Cc2ccc3ccccc3c2)C(N)=O)NC1=O [Analog No. 46, H2-β-Nal-D-Cys-3-I-Tyr-D-Trp-Lys-Val-Cys-β-Nal-NH2] (H-[2Nal][dC][Tyr(3-I)][dW]KVC[2Nal]-NH2; disulfide 2-7)",20 nM
15,"CC(C)[C@@H]1NC(=O)[C@H](CCCCN)NC(=O)[C@@H](Cc2c[nH]c3ccccc23)NC(=O)[C@H](Cc2cccnc2)NC(=O)[C@H](NC(=O)[C@@H](N)Cc2ccc(C#N)cc2)CSSC[C@@H](C(=O)N[C@@H](Cc2ccc(C#N)cc2)C(N)=O)NC1=O [Analog No. 47, H2-p-CN-Phe-D-Cys-Pal-D-Trp-Lys-Val-Cys-p-CN-Phe-NH2] (H-[Phe(4-CN)][dC][3Pal][dW]KVC[Phe(4-CN)]-NH2; disulfide 2-7)",53 nM
16,"CC(C)[C@@H]1NC(=O)[C@H](CCCCN)NC(=O)[C@@H](Cc2c[nH]c3ccccc23)NC(=O)[C@H](Cc2ccc(O)cc2)NC(=O)[C@H](NC(=O)[C@@H](N)Cc2ccc3ccccc3c2)CSSC[C@@H](C(=O)N[C@@H](C(N)=O)C(c2ccccc2)c2ccccc2)NC1=O [Analog No. 48, H2-β-Nal-D-Cys-Tyr-D-Trp-Lys-Val-Cys-D-Dip-NH2] (H-[2Nal][dC]Y[dW]KVC[dDip]-NH2; disulfide 2-7)",50 nM
